Assay results: paper PMC7935272 (PLoS Pathogens, 2021)
Entries after “also recorded” stand apart in the source; their conditions may differ. Where two headings read alike, the source gives them in different places.

How the values were obtained:
MeV L1708 = MeV L1708 (Measles virus, UniProt Q9WMB3); assay: Biolayer interferometry, MeV L1708 WT; format: binding; conditions: for S5 C BLI sensorgram response / S5 B BLI sensorgram response: MeV L1708 WT; for steady-state BLI sensor response: S7 B
[1] = cited from earlier work
MeV [2] = conditions: cited from earlier work
MeV P-L complexes = MeV P-L complexes (Measles virus, UniProt Q9WMB3); assay: In vitro RdRP assay on 25-nt RSV promoter template (de novo initiation and back-priming); conditions: 25-mer RSV promoter template
MeV L = biological target: T1, MeV L (Measles virus, UniProt P12576); assay: MeV minigenome dose-response assay, L WT; format: cell-based; conditions: 40 h, ERDRP-0519 0.005 µM; L WT; Figure 1D; read-out: minigenome activity, individual repeat
T1 construct: expressed in transfected cells; host or cells: BSR-T7/5

[3] = tested on: MeV mRNA transcripts (P, H, L); assay: qRT-PCR of MeV primary transcription in infected Vero-hSLAM cells; format: cell-based; conditions: for Transcription gradient, H mRNA, Predicted (LS) mean 2 / Transcription gradient, L mRNA, Predicted (LS) mean 2 / Transcription gradient, P mRNA, Predicted (LS) mean 2: Figure 3I, N2 3
Procedure: Total RNA was extracted four hours after infection using Trizol and subjected to reverse transcription using either oligo-dT primers. Subsequent qPCR used primer pairs specific for MeV P mRNA, MeV H mRNA, MeV L mRNA, or human GAPDH mRNA, respectively. qPCR was performed using an Applied Biosystems 7500 Real-Time PCR System with a StepOnePlus Real-Time PCR System. Samples were normalized for GAPDH.

[4] = tested on: MeV L-P complexes L H589Y; format: biochemical; conditions: de novo initiation, L H589Y vs WT
MeV [5] = assay: Cell-based anti-MeV assays of earlier work
RSV L = RSV L (Human respiratory syncytial virus A, UniProt P28887); assay: Biolayer interferometry, RSV L specificity control; format: binding; conditions: for steady-state BLI sensor response: S7 C
WT MeV L-P complexes = WT MeV L-P complexes (Measles virus, UniProt Q9WMB3); assay: Primer extension RdRP assay, GTP only (first nucleotide), L WT; format: biochemical; conditions: 5 h, read-out: first nucleotide incorporation signal (FIG 4D densitometry, first row = 100)
[6] = tested on: canine distemper virus (CDV); conditions: oral treatment initiated at first day of viremia; cited from earlier work

Cn1nc(C(F)(F)F)cc1C(=O)Nc1ccc(S(=O)(=O)N2CCCC[C@H]2CCN2CCOCC2)cc1 [ERDRP-0519, S(=O)(=O)(N1[C@H](CCN2CCOCC2)CCCC1)c1ccc(NC(=O)c2n(C)nc(C(F)(F)F)c2)cc1]
S5 C BLI sensorgram response (MeV L1708; 5 µM, time 0.6 s): 0.003495 | S5 B BLI sensorgram response (MeV L1708; 10 µM, time 0 s): -0.00589 | S5 C BLI sensorgram response (MeV L1708; 10 µM, time 0 s): -0.0007761 | S5 B BLI sensorgram response (MeV L1708; 10 µM, time 0.2 s): -0.006049 | S5 C BLI sensorgram response (MeV L1708; 10 µM, time 0.2 s): -0.00071 | S5 B BLI sensorgram response (MeV L1708; 10 µM, time 0.4 s): -0.006539 | S5 C BLI sensorgram response (MeV L1708; 10 µM, time 0.4 s): -0.000595 | S5 B BLI sensorgram response (MeV L1708; 10 µM, time 0.6 s): -0.006943 | S5 C BLI sensorgram response (MeV L1708; 10 µM, time 0.6 s): -0.0003228 | S5 B BLI sensorgram response (MeV L1708; 50 µM, time 0 s): -0.01268 | S5 C BLI sensorgram response (MeV L1708; 50 µM, time 0 s): 0.001755 | S5 B BLI sensorgram response (MeV L1708; 50 µM, time 0.2 s): -0.01168 | S5 C BLI sensorgram response (MeV L1708; 50 µM, time 0.2 s): 0.001652 | S5 B BLI sensorgram response (MeV L1708; 50 µM, time 0.4 s): -0.01101 | S5 C BLI sensorgram response (MeV L1708; 50 µM, time 0.4 s): 0.001542 | S5 B BLI sensorgram response (MeV L1708; 50 µM, time 0.6 s): -0.01006 | S5 C BLI sensorgram response (MeV L1708; 50 µM, time 0.6 s): 0.001922 | steady-state BLI sensor response (MeV L1708; 0.003 uM): 0.007597 | steady-state BLI sensor response (MeV L1708; 0.027 uM): 0.01138 | steady-state BLI sensor response (MeV L1708; 0.08 uM): 0.01081 | steady-state BLI sensor response (MeV L1708; 0.74 uM): 0.01443 | steady-state BLI sensor response (MeV L1708; 2.22 uM): 0.01474 | steady-state BLI sensor response (MeV L1708; 6.67 uM): 0.01921 | CC50 [1]: 75 µM | IC50 (MeV [2]; Figure 7A source data): 0.059 µM | EC50 (MeV [2]; experimental activity, read-out: EC50): 0.059 µM | EC50 (MeV [2]; read-out: EC50 in cell-based anti-MeV assays): 0.07 to 0.23 µM | 3'-elongation after backpriming (MeV P-L complexes): equivalently dose-dependently blocked | remaining activity at 0.005 µM (MeV L): 97% | MeV P mRNA levels ([3]; 0.2 μM or 0.8 μM, 4 hours after infection, recMeV-Anc MOI 3): significantly decreased; also recorded: dose-dependently reduced | Transcription gradient, H mRNA, Predicted (LS) mean 2 ([3]; 0.2 µM): 0.1422 | Transcription gradient, L mRNA, Predicted (LS) mean 2 ([3]; 0.2 µM): 0.005639 | Transcription gradient, P mRNA, Predicted (LS) mean 2 ([3]; 0.2 µM): 1.063 | Transcription gradient, H mRNA, Predicted (LS) mean 2 ([3]; 0.8 µM): 0.1249 | Transcription gradient, L mRNA, Predicted (LS) mean 2 ([3]; 0.8 µM): 0.007941 | Transcription gradient, P mRNA, Predicted (LS) mean 2 ([3]; 0.8 µM): 1.011 | increase in IC50 value [4]: 24 fold | IC50 (MeV [5]; Figure 7A source data): 0.06 µM | IC50 (MeV [5]; −log10(EC50) of literature EC50): 0.0601 µM | binding to RSV polymerase (RSV L; BLI specificity control): No appreciable binding; also recorded: no binding was detected | steady-state BLI sensor response (RSV L; 0.003 uM): 0.004459 | steady-state BLI sensor response (RSV L; 0.009 uM): 0.00801 | steady-state BLI sensor response (RSV L; 0.027 uM): 0.008695 | steady-state BLI sensor response (RSV L; 0.24 uM): 0.01534 | steady-state BLI sensor response (RSV L; 0.74 uM): 0.01342 | steady-state BLI sensor response (RSV L; 2.22 uM): 0.007742 | steady-state BLI sensor response (RSV L; 6.67 uM): 0.01053 | steady-state BLI sensor response (RSV L; 20 uM): 0.00593 | remaining activity at 0.0152416 µM (WT MeV L-P complexes; 0.0152416 µM): 92.5% | remaining activity at 0.0457247 µM (WT MeV L-P complexes; 0.0457247 µM): 96.8% | remaining activity at 0.137174 µM (WT MeV L-P complexes; 0.137174 µM): 64.3% | remaining activity at 0.411523 µM (WT MeV L-P complexes; 0.411523 µM): 40.5% | remaining activity at 1.23457 µM (WT MeV L-P complexes; 1.23457 µM): 30.4% | remaining activity at 3.7037 µM (WT MeV L-P complexes; 3.7037 µM): 30% | remaining activity at 11.1111 µM (WT MeV L-P complexes; 11.1111 µM): 27.6% | remaining activity at 33.3333 µM (WT MeV L-P complexes; 33.3333 µM): 26% | survival [6]: all treated animals survived
